Data on twelve molecules can be found in ChEMBL document CHEMBL1133056, “Structure-activity relationships of halichondrin B analogues: modifications at C.30-C.38” (Bioorg Med Chem Lett, 2000).

Where only a bound is given, the exact number is not on record here.

In assay [1] the test system is DLD-1. In words: The compound was tested for cell growth inhibition against DLD-1 human colon cancer cells under continuous exposure conditions for 3-4 days. The class given is functional, cell-based.
Assay [2] concerns P388. As to the kind of experiment: Fold resistance was calculated as IC50 ratio between retrovirally transformed P388/VMDRC.04 and parental P388/S cells. The assay is classed as functional, Mus musculus.
Assay [3] has as its system P388. As to the kind of experiment: The compound was tested for susceptibility to P-glycoprotein (PgP) mediated drug efflux using murine P388/VMDRC.04 cells under continuous exposure conditions for 3-4 days. The class given is functional, cell-based. Conditions: Mus musculus.
Assay [4] can be described thus: The compound was tested for its ability to maintain a irreversible mitotic block 10 hr after drug washout using flow cytometric analysis of U937 human histiocytic lymphoma cells. The assay is classed as functional. The settings on record: U-937, 10 h.
Assay [5] concerns P388. In words: The compound was tested for susceptibility to […] murine P388/S leukemia cells under continuous exposure conditions for 3-4 days. The class given is functional, cell-based. The settings on record: Mus musculus.

For `C=C1C[C@@H]2CC[C@@]34C[C@@H]5O[C@@H]6[C@@H](O[C@H]7CC[C@H](CC(=O)O[C@H]8C[C@@H]9O[C@H](CO)[C@@H](O)C[C@@H]9O[C@H]8C[C@H]8O[C@@H](CC[C@@H]1O2)C[C@@H](C)C8=C)O[C@@H]7[C@@H]6O3)[C@H]5O4`, half-maximal inhibition in assay [1] (IC50) required 230 nM.
Turning to `C=C1C[C@@H]2CC[C@@]34C[C@@H]5O[C@@H]6[C@@H](O[C@H]7CC[C@H](CC(=O)O[C@@H]8[C@@H](C)[C@@H]9O[C@H](CCOC)[C@H](O)C[C@@H]9O[C@H]8C[C@H]8O[C@@H](CC[C@@H]1O2)C[C@@H](C)C8=C)O[C@@H]7[C@@H]6O3)[C@H]5O4`, the FR in assay [2] is on record as 2.7. Besides, the IC50 (usually the concentration that inhibits the measured activity by half) in assay [1] came out at 1.2 nM; in assay [3], 1.5 nM; in assay [5], 0.55 nM. Besides, the IC99 (in general, the concentration at which the effect reaches the 99% level) in assay [4] was over 0.65 µM.
As for `C=C1C[C@@H]2CC[C@@]34C[C@@H]5O[C@@H]6[C@@H](O[C@H]7CC[C@H](CC(=O)O[C@@H]8[C@@H](C)[C@@H]9O[C@@H]%10CC(O)O[C@@H]%10C[C@@H]9O[C@H]8C[C@H]8O[C@@H](CC[C@@H]1O2)C[C@@H](C)C8=C)O[C@@H]7[C@@H]6O3)[C@H]5O4` (some centres not stated), the FR in assay [2] is given as 2.5. Also, the half-maximal inhibitory concentration (IC50) in assay [1] came out at 2.1 nM; in assay [3] it was 3.8 nM; in assay [5], 1.5 nM. For the same molecule, in assay [4], the concentration for an effect of 99% (IC99) is over 1 µM.
For `C=C1C[C@@H]2CC[C@@]34C[C@@H]5O[C@@H]6[C@@H](O[C@H]7CC[C@H](CC(=O)O[C@@H]8[C@@H](C)[C@@H]9O[C@H](CCO)[C@H](O)C[C@@H]9O[C@H]8C[C@H]8O[C@@H](CC[C@@H]1O2)C[C@@H](C)C8=C)O[C@@H]7[C@@H]6O3)[C@H]5O4` the same measures were 4, 4.6 nM, 8.8 nM, 2.2 nM and over 0.88 µM.
For `C=C1C[C@@H]2CC[C@@]34C[C@@H]5O[C@@H]6[C@@H](O[C@H]7CC[C@H](CC(=O)O[C@@H]8[C@@H](C)[C@@H]9O[C@@H]%10CCOC%10(O)C[C@@H]9O[C@H]8C[C@H]8O[C@@H](CC[C@@H]1O2)C[C@@H](C)C8=C)O[C@@H]7[C@@H]6O3)[C@H]5O4` (some centres not stated) the same measures were 2, 5.2 nM, 6.3 nM, 3.1 nM and 1 µM.
For the molecule `C=C1C[C@@H]2CC[C@@]34C[C@@H]5O[C@@H]6[C@@H](O[C@H]7CC[C@H](CC(=O)O[C@@H]8[C@@H](C)[C@@H]9O[C@H](CO)[C@H](O)C[C@@H]9O[C@H]8C[C@H]8O[C@@H](CC[C@@H]1O2)C[C@@H](C)C8=C)O[C@@H]7[C@@H]6O3)[C@H]5O4`, the FR in assay [2] is recorded as 12. The IC50 in assay [1] stood at 3.4 nM; in assay [3], 8.2 nM; in assay [5], 0.71 nM. The molecule further showed an IC99 in assay [4] of 0.22 µM.
Regarding `C=C1C[C@@H]2CC[C@@]34C[C@@H]5O[C@@H]6[C@@H](O[C@H]7CC[C@H](CC(=O)O[C@@H]8C[C@@H]9O[C@H](CO)[C@@H](O)C[C@@H]9O[C@H]8C[C@H]8O[C@@H](CC[C@@H]1O2)C[C@@H](C)C8=C)O[C@@H]7[C@@H]6O3)[C@H]5O4`, inhibition in assay [1] was half-maximal at 610 nM (IC50).
Turning to `CC(=O)O[C@H]1C(=O)[C@@]2(C)[C@H]([C@H](OC(=O)c3ccccc3)[C@]3(O)C[C@H](OC(=O)[C@H](O)[C@@H](NC(=O)c4ccccc4)c4ccccc4)C(C)=C1C3(C)C)[C@]1(OC(C)=O)CO[C@@H]1C[C@@H]2O` [PACLITAXEL], the FR in assay [2] is listed as 11. Besides, the IC50 in assay [1] was determined as 27 nM; in assay [3], 170 nM; in assay [5], 16 nM. In assay [4], this molecule came in with an IC99 of 0.23 µM.
On to `C=C1C[C@@H]2CC[C@@]34C[C@@H]5O[C@@H]6[C@@H](O[C@H]7CC[C@H](CC(=O)O[C@@H]8[C@@H](CC)[C@@H]9O[C@H](CO)[C@@H](O)C[C@@H]9O[C@H]8C[C@H]8O[C@@H](CC[C@@H]1O2)C[C@@H](C)C8=C)O[C@@H]7[C@@H]6O3)[C@H]5O4`, for which the FR in assay [2] is 10. The concentration for half-maximal inhibition (IC50) in assay [1] worked out at 6 nM; in assay [3], 16 nM; in assay [5], 1.6 nM. The molecule further came in with an IC99 in assay [4] of 1 µM.
Regarding `C=C1C[C@@H]2CC[C@@]34C[C@@H]5O[C@@H]6[C@@H](O[C@H]7CC[C@H](CC(=O)O[C@@H]8[C@@H](C)[C@@H]9O[C@@H]%10CCO[C@@H]%10C[C@@H]9O[C@H]8C[C@H]8O[C@@H](CC[C@@H]1O2)C[C@@H](C)C8=C)O[C@@H]7[C@@H]6O3)[C@H]5O4`, the FR in assay [2] is recorded as 2.1. The IC50 came to 2.6 nM in assay [1], 2.7 nM in assay [3] and 1.3 nM in assay [5]. Further, the IC99 in assay [4] was over 1 µM.
The corresponding values for `C=C1C[C@@H]2CC[C@@]34C[C@@H]5O[C@@H]6[C@@H](O[C@H]7CC[C@H](CC(=O)O[C@@H]8[C@@H](C)[C@@H]9O[C@H](CCO)[C@@H](O)C[C@@H]9O[C@H]8C[C@H]8O[C@@H](CC[C@@H]1O2)C[C@@H](C)C8=C)O[C@@H]7[C@@H]6O3)[C@H]5O4` are 9.4, 3.6 nM, 1.6 nM, 1.7 nM and over 1 µM.
For `C=C1C[C@@H]2CCC34C[C@@H]5O[C@@H]6[C@@H](O[C@H]7CC[C@H](CC(=O)O[C@@H]8[C@@H](C)[C@@H]9O[C@@H]%10C[C@]%11(C[C@@H]%12O[C@]%13(C[C@H](C)[C@@H]%14O[C@H]([C@@H](O)C[C@@H](O)CO)C[C@@H]%14O%13)C[C@H](C)[C@@H]%12O%11)O[C@@H]%10C[C@@H]9O[C@H]8C[C@H]8O[C@@H](CC[C@@H]1O2)C[C@@H](C)C8=C)O[C@@H]7[C@@H]6O3)[C@H]5O4` the same measures were 2.8, 0.74 nM, 1.7 nM, 0.6 nM and 0.025 µM.
